# Assay results: ChEMBL document CHEMBL2203104, “Recent advances in antitubercular natural products” (Eur J Med Chem, 2012)
# Numbered stars: 1 amine (or outer) side, 2 acyl side, 3 side chain; on linkers, the order of the positions; unused ones are H or OH. Square brackets hold non-standard residues; d marks the D form. Peptide text beside a SMILES is read from it. * marks the point of attachment. X1 = CCC(=O)C[C@@H](O)C[C@@H](C)C[C@H](N[*:1])C(=O)[*:2]; Alaψ(CH2NMeCH2CH2OH) = C[C@@H](CN(C)CCO)N*; Decanoyl(2R-Me) = CCCCCCCC[C@@H](C)C(=O)*; Aib = CC(C)(N)C(=O)O
# System: Mycobacterium tuberculosis
# Test: Antimycobacterial activity against Mycobacterium tuberculosis
# Format: functional
# Settings: not given
row,Compound,MIC
1,CC(C)[C@]12C=C3CC[C@H]4[C@](C)(C(=O)O)CCC[C@]4(C)[C@]3(CC1)OO2,50 µg/mL
2,C/C=C/C(=O)OC[C@H]1O[C@@H](Oc2cccc3cc(C)c(C(C)=O)c(O)c23)[C@H](O)[C@@H](O)[C@@H]1O [RUMEXNEPOSIDE A],20.7 µM
3,CC(=O)OC[C@H]1O[C@@H](Oc2cccc3c2C(=O)c2c(O)cc(C)cc2C3=O)[C@H](O)[C@@H](O)[C@@H]1O,4.1 µM
4,CC(=O)c1c(C)cc2cccc(O[C@@H]3O[C@H](CO)[C@@H](O)[C@H](O)[C@H]3O)c2c1O,26.6 µM
5,COc1c(O)cc2c(c1CC=C(C)C)C(=O)c1c(cc(OS(=O)(=O)O)c(CC=C(C)C)c1O)C2,6.75 µM
6,COc1c(O)cc2oc3cc(O)c(CC=C(C)C)c(O)c3c(=O)c2c1CC=C(C)C [MANGOSTIN],15.2 µg/mL
7,CC(C)(O)c1ccc2c(c1)CC[C@H]1[C@](C)(C(=O)O)CCC[C@]21C,50 µg/mL
8,CC(C)C(O)C(=O)N/C=C\C=C/NC(=O)C(O)C(C)C (stereo not drawn) [PHOMOENAMIDE],6.25 µg/mL
9,C=C[C@@]1(C)C=C2CC[C@@H]3[C@](C)(CCC[C@@]3(C)C(=O)O)[C@H]2CC1 [PIMARIC ACID],50 µg/mL
10,COc1cc(O)c2c(O)c(C(C)=O)c(C)cc2c1 [TORACHRYSONE],6.1 µM

# System: Mycobacterium tuberculosis
# Test: Antimycobacterial activity against Mycobacterium tuberculosis H37Ra
# Format: functional
# Settings: not given
row,Compound,MIC
1,C=C[C@H]1C=C[C@H]2[C@@H]3C[C@H](C)CC[C@H]3[C@@H]3Oc4ccc(cc4)C[C@]4(O)NC(=O)[C@H](C(=O)[C@@H]1[C@H]23)C4N1C(=O)[C@H]2C(=O)[C@H]3[C@@H](C=C)C=C[C@H]4[C@@H]5C[C@H](C)CC[C@H]5[C@H](Oc5ccc(cc5)C[C@@H]2C1=O)[C@@H]43 (stereo partly drawn) [HIRSUTELLONE F],3.12 µg/mL
2,C=C1C(=O)O[C@@H]2/C=C(/CO)C3=CC(=O)[C@@](C)(C[C@H](OC(=O)/C(C)=C/C)[C@@H]12)O3 [LYCHNOPHOROLIDE B],6.2 µg/mL
3,O=C(CCCCCCCCc1ccccc1)c1c(O)cccc1O [MALABARICONE A],25 µg/mL
4,CC1(C)C=Cc2c(cc3oc(CO)cc(=O)c3c2O)O1 [GREVEICHROMENOL],50 µg/mL
5,C=C(C)C(=O)O[C@H]1C[C@@]2(C)OC(=CC2=O)C(=C)[C@H](O)[C@H]2OC(=O)C(=C)[C@@H]21,3.1 µg/mL
6,Oc1ccc2c(c1)OC[C@H]1c3cc4c(cc3O[C@@H]21)OCO4 [MAACKIAIN],50 µg/mL
7,C=C(C)C(=O)O[C@H]1C[C@@]2(C)OC(=CC2=O)/C(CO)=C\[C@H]2OC(=O)C(=C)[C@H]12 [GOIAZENSOLIDE],3.1 µg/mL
8,COc1c(-c2ccccc2)oc2c3c(ccc2c1=O)OC(C)(C)C=C3 [KARANJACHROMENE],12.5 µg/mL
9,CCc1c(OC)cc2c(c1O)C(=O)C=C(OC)C2=O,12.5 µg/mL
10,COc1cc2c(cc1OC)-c1c3c(cc4c1[C@@H](C2)NCC4)OCO3,12.5 µg/mL
11,O=C(/C=C/CC/C=C/c1ccc2c(c1)OCO2)N1CCCC1 [SARMENTOSINE],50 µg/mL
12,CCCCC/C=C/C=C/C(=O)N1CCCC1 [SARMENTINE],50 µg/mL
13,C=C1C(=O)O[C@H]2[C@H]1[C@@H](OC(=O)/C(C)=C\C)C[C@@]1(C)OC(=CC1=O)C(=C)[C@@H]2O,3.1 µg/mL
14,CCCC/C=C/C#CC#CC(C)CCCCCCC(=O)O (stereo not drawn),25 µg/mL
15,COc1c2ccoc2cc2oc(-c3ccccc3)cc(=O)c12 [PINNATIN],12.5 µg/mL
16,CCCCC/C=C/C=C/C(=O)NCC(C)C [PELLITORIN],50 µg/mL
17,C=C(C)CC(O)c1c(OC)cc(O)c2c(=O)cc(C)oc12 (stereo not drawn) [PERFORAMONE B],25 µg/mL
18,CCCCCCCC[C@@H](C)C(=O)N1CCC[C@H]1C(=O)N[C@@H](C[C@H](C)C[C@H](O)CC(=O)CC)C(=O)NC(C)(C)C(=O)NC(C)(C)C(=O)N[C@H](C(=O)N[C@H](C(=O)NC(C)(C)C(=O)NC(C)(C)C(=O)N[C@@H](C)CN(C)CCO)C(C)C)[C@@H](C)CC [TRICHODERIN A] ({Decanoyl(2R-Me)}-P[X1][Aib][Aib]IV[Aib][Aib]-{Alaψ(CH2NMeCH2CH2OH)}),25 µg/mL
19,O=C1C=C[C@@H](OC(=O)/C=C/c2ccccc2)[C@@H]([C@H]2O[C@@H]2c2ccccc2)O1 [HOWIININ A],6.25 µg/mL
20,O=c1cc(-c2ccccc2)oc2c1ccc1occc12 [LANCEOLATIN B],50 µg/mL
21,CCCC/C=C/C#CC#CCCCCCCCC(=O)OCC(O)CO (stereo not drawn),25 µg/mL
22,O=C1C=C[C@@H]2O[C@H](c3ccccc3)[C@@H](O)[C@@H]2O1 [ALTHOLACTONE],6.25 µg/mL
23,O=C1CC[C@H](O)c2cc(O)cc(O)c21,12.5 µg/mL
24,COc1ccc(C/C=C/c2ccc(O)cc2)c(OC)c1O [DALPARVINENE],50 µg/mL
25,"COc1ccc2c(=O)c(OC)c(-c3ccccc3)oc2c1 [3,7-DIMETHOXYFLAVONE]",50 µg/mL

row,Compound,MIC
1,COc1cc(O)c2c(c1)[C@H](O)[C@@H](OC)CC2=O,25 µg/mL
2,C=C(C)C(=O)O[C@H]1C[C@@]2(C)OC(=CC2=O)C(=C)[C@@H](O)[C@H]2OC(=O)C(=C)[C@@H]21 [ISOGOIAZENSOLIDE],1.5 µg/mL
3,C=C1C(=O)O[C@@H]2/C=C(/CO)C3=CC(=O)[C@@](C)(C[C@H](OC(=O)/C(C)=C\C)[C@@H]12)O3 [CENTRATHERIN],3.1 µg/mL
4,COc1c(-c2ccc(O)cc2)oc2c3c(ccc2c1=O)OC(C)(C)[C@H](OC(C)=O)[C@@H]3OC(C)=O,25 µg/mL
5,C=C(C)[C@@H]1CC[C@]2(C(=O)O)CC[C@]3(C)[C@H](CC[C@@H]4[C@@]5(C)CC[C@H](O)C(C)(C)[C@@H]5CC[C@]43C)[C@@H]12 [BETULINIC ACID],25 µg/mL
6,CC(=O)O[C@@H]1C[C@H]2C(C)(C)C(=O)C=C[C@]2(C)[C@H]2CC[C@]3(C)C(=CC(=O)[C@H]3c3ccoc3)[C@@]21C [AZADIRADIONE],6.25 µg/mL
7,C=C1C(=O)O[C@@H]2/C=C(\C(=O)O)CC/C=C(\C)CC[C@@H]12,50 µg/mL
8,CCCCCCCCCCCC(=O)c1c(O)cc(O)cc1O [DODECANOYLPHLOROGLUCINOL],50 µg/mL
9,COc1ccc2c(=O)c(OC)c(-c3ccc4c(c3)OCO4)oc2c1 [DEMETHOXYKANUGIN],50 µg/mL
10,COC(=O)/C=C/c1ccc(O)c(O)c1 [METHYLCAFFEATE],25 µg/mL
11,CC1(C)C=Cc2c(cc(O)c3c(=O)cc(CO)oc23)O1 [PERFORAMONE D],25 µg/mL
12,CC[C@H](C)[C@H]1C(=O)N[C@@H](Cc2ccc(OCC=C(C)C)cc2)C(=O)N(C)[C@@H](C)C(=O)O[C@H](Cc2ccccc2)C(=O)N2CCC[C@H]2C(=O)N[C@@H](CO)C(=O)N1C [PULLULARIN A],25 µg/mL
13,COc1cc2oc(C)cc(=O)c2c(O)c1CC=C(C)C,50 µg/mL
14,NC(=O)c1cnccn1 [PYRAZINAMIDE],810 µM
15,CCOC(=O)/C=C/c1ccc(OC)cc1 [4-METHOXY ETHYL CINNAMATE],485 µM
16,O=Cc1cc2c(cc1O)[nH]c1cc(O)ccc12 [CLAUSINE O],25 µg/mL
17,O=C(/C=C/CCCC/C=C/c1ccc2c(c1)OCO2)N1CCCC1 [BRACHYAMIDE B],50 µg/mL
18,C/C=C(\C)C(=O)C1=C2C3=COC(/C=C/[C@@H](C)CC)=CC3=C(Cl)C(=O)[C@@]2(C)OC1=O [CHAETOVIRIDIN E],50 µg/mL
19,COc1ccc2c(=O)c3c(oc2c1)-c1cc2c(cc1CO3)OCO2,6.25 µg/mL
20,CC(C)=CCOc1ccc(C[C@@H]2NC(=O)[C@H](C(C)C)N(C)C(=O)[C@H](CO)NC(=O)[C@@H]3CCCN3C(=O)[C@@H](Cc3ccccc3)OC(=O)[C@H](C)N(C)C2=O)cc1 [PULLULARIN C],50 µg/mL
21,CO[C@H]1CC(=O)c2c(O)cccc2[C@H]1O,12.5 µg/mL
22,CC(=O)O[C@@H]1C[C@H]2C(C)(C)C(=O)C=C[C@]2(C)[C@H]2CC[C@@]3(C)[C@H](c4ccoc4)C(=O)[C@H]4O[C@]43[C@@]21C [EPOXYAZADIRADIONE],25 µg/mL
23,COC1=CC(=O)c2c(cc(OC)c(C(C)C3=C(O)C(=O)c4cc(O)cc(O)c4C3=O)c2O)C1=O (stereo not drawn),6.25 µg/mL
24,COc1ccc([C@@]23Oc4cc(OC)cc(OC)c4[C@@](O)(C2O)[C@@H](C(=O)NCCCCNC(=O)c2ccccc2)[C@@H]3c2ccccc2)cc1 (stereo partly drawn),25 µg/mL
25,COc1cc(OC)c(-c2coc3cc(O)cc(O)c3c2=O)cc1O [DALPARVONE],50 µg/mL

# System: Mycobacterium tuberculosis
# Test: Antimycobacterial activity against Mycobacterium tuberculosis H37Rv ATCC 27294
# Format: functional
# Settings: not given
row,Compound,MIC [µg/mL]
1,CCCCCCCCC[C@@H]1C[C@@H]2CC[C@H]3[C@@H](C(=O)OC(C)CCCCCCC[C@@H]4C[C@@H]5CC[C@@H]6C[C@H](C)NC(=N4)N65)[C@@H](C)N=C(N1)N23 (stereo partly drawn) [BATZELLADINE L],1.68
2,CC(C)CC(NC(=O)NC(Cc1c[nH]c2ccccc12)C(=O)O)C(=O)NC(C(=O)N/C=C1\C[C@@H](O)[C@H](n2ccc(=O)[nH]c2=O)O1)C(C)N(C)C(=O)C1Cc2cc(O)ccc2C(C)(C)N1 (stereo partly drawn) [SANSANMYCIN G],16
3,CCCCCCC[C@@H]1C[C@@H]2CCC3=C(C(=O)OCCCCCCC[C@@H]4C[C@@H]5CC[C@@H]6C[C@H](C)NC(=N4)N65)C(C)N=C(N1)N32 (stereo partly drawn),28.5
4,CCC1C=CCC[C@@]2(C[C@@H]3CC[C@@H]4[C@H](C(=O)OCCCCCCCCCCCCCCCC(=O)N(CCCN)C[C@@H](O)CCN)[C@]5(CCC[C@@H](C)O5)NC(=N2)N34)O1 (stereo partly drawn),46.5
5,CCCCCCC[C@@H]1C[C@@H]2CCC3=C(C(=O)OC(C)CCCCCCC[C@@H]4C[C@@H]5CC[C@@H]6C[C@H](C)NC(=N4)N65)C(C)N=C(N1)N32 (stereo partly drawn) [BATZELLADINE N],3.18
6,CSSc1cccc[n+]1[O-],1.25
7,CCCCCCC[C@H]1C[C@H]2CCC3=C(C(=O)OCCCCNC(=N)N)C(CCCCC)=NC(=N1)N32,37.7
8,CSCCC(NC(=O)NC(Cc1c[nH]c2ccccc12)C(=O)O)C(=O)NC(C(=O)N/C=C1\C[C@@H](O)[C@H](n2ccc(=O)[nH]c2=O)O1)C(C)N(C)C(=O)C(N)Cc1cccc(O)c1 (stereo partly drawn) [SANSANMYCIN A],16
9,C/C(=C\CO)CCCC(C)CCCC(C)CCCC(C)C (stereo not drawn),1.56
10,CSCCC(NC(=O)NC(Cc1c[nH]c2ccccc12)C(=O)O)C(=O)NC(C(=O)N/C=C1\C[C@@H](O)[C@H](n2ccc(=O)[nH]c2=O)O1)C(C)N(C)C(=O)C1Cc2cc(O)ccc2C(C)(C)N1 (stereo partly drawn) [SANSANMYCIN F],16
11,CCCCCCC[C@H]1C[C@H]2CCC3=C(C(=O)OCCCCNC(=N)N)C(CCCCC)N=C(N1)N32 (stereo partly drawn),34.7

# System: Mycobacterium tuberculosis
# Test: Antimycobacterial activity against Mycobacterium tuberculosis H37Rv
# Format: functional
# Settings: Mycobacterium tuberculosis, H37Rv; read-out: MIC
row,Compound,MIC [µM]
1,NC(=O)c1cnccn1 [PYRAZINAMIDE],810
2,CCOC(=O)/C=C/c1ccc(OC)cc1 [4-METHOXY ETHYL CINNAMATE],242
